Data: ChEMBL document CHEMBL1137469, “(3R,4S)-4-(2,4,5-Trifluorophenyl)-pyrrolidin-3-ylamine inhibitors of dipeptidyl peptidase IV: synthesis, in vitro, in vivo, and X-ray crystallographic characterization” (Bioorg Med Chem Lett, 2007)

Experiments:
[1] = biological target: Dipeptidyl peptidase 2 (Homo sapiens, UniProt Q9UHL4); test: Inhibition of human recombinant DPP2
[2] = biological target: Dipeptidyl peptidase 4 (Homo sapiens, UniProt P27487)
[3] = Half life in iv dosed rat plasma; assay type: ADME, organism-based
[4] = Percent of unbound ligand in dog plasma; assay type: ADME, cell-free, Canis lupus familiaris
[5] = biological target: T1, Dipeptidyl peptidase 3 (Homo sapiens, UniProt Q9NY33); test: Inhibition of DPP3
T1 sequence (Q9NY33 whole entry): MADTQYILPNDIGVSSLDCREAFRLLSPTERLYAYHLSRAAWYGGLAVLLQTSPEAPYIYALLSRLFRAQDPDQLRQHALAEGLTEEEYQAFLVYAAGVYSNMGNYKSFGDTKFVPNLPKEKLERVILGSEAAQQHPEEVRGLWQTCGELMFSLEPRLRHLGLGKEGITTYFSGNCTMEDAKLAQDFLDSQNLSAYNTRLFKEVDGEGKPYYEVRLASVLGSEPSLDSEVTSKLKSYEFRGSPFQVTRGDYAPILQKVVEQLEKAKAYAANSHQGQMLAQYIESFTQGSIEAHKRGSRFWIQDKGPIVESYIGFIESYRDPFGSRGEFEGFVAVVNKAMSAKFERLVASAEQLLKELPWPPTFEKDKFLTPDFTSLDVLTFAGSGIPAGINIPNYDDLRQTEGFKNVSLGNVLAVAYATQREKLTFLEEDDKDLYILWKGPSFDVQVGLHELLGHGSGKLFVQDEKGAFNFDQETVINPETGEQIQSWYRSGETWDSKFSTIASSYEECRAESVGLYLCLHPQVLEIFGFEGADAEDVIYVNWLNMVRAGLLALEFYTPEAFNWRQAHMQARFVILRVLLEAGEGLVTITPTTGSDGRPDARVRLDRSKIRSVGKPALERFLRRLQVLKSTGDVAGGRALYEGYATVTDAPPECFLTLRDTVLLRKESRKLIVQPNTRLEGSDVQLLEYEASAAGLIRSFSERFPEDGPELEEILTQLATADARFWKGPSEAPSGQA

[6] = Oral bioavailability in rat plasma; assay type: ADME, organism-based
[7] = Half life in po dosed rat plasma; assay type: ADME, organism-based
[8] = Half life in iv dosed dog plasma; assay type: ADME, organism-based, Canis lupus familiaris
[9] = Plasma clearance in rat; assay type: ADME, organism-based
[10] = Volume of distribution at steady state in rat plasma; assay type: ADME, organism-based; conditions: read-out: Vdss
[11] = Plasma clearance in dog; assay type: ADME, organism-based, Canis lupus familiaris
[12] = Volume of distribution at steady state in dog plasma; assay type: ADME, organism-based, Canis lupus familiaris; conditions: read-out: Vdss

Chain of Dipeptidyl peptidase 4 (P27487 whole entry): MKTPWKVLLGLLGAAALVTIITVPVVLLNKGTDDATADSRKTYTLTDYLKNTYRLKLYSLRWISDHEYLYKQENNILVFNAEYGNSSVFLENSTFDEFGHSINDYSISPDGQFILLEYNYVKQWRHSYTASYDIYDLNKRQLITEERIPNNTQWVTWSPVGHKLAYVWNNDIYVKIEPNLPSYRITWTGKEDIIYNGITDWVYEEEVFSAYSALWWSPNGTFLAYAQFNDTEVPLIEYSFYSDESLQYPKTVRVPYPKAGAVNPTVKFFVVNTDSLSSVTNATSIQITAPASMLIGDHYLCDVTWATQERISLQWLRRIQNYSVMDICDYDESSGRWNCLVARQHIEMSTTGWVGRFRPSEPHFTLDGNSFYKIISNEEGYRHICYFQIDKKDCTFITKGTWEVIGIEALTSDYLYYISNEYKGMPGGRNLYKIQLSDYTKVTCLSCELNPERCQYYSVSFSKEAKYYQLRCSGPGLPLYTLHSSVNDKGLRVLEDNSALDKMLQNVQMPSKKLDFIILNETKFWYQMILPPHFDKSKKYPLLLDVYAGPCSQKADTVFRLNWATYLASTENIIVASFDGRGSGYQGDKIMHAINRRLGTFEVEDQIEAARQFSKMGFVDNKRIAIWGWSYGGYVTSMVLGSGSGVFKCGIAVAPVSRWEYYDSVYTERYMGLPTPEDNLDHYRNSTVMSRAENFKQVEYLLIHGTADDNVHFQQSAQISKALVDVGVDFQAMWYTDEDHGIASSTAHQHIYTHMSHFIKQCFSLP

Row | Structure (SMILES) | IC50 [2] [µM] | also measured
1 | N[C@H]1CN(c2cc(-c3cccc(F)c3)ncn2)C[C@@H]1c1cc(F)c(F)cc1F | – | IC50 [1]: 15 µM
2 | COc1ccc([C@@H]2CN(c3nc4c(cc3F)c(=O)c(C(=O)O)cn4C3CC3)C[C@@H]2N)cc1 (relative stereo) | > 3 | –
3 | COC(=O)c1ccc([C@@H]2CN(c3nc4c(cc3F)c(=O)c(C(=O)O)cn4C3CC3)C[C@@H]2N)cc1 (relative stereo) | > 3 | –
4 | N[C@H]1CN(c2ccc3ccccc3n2)C[C@@H]1c1ccccc1 | > 3 | –
5 | COc1ccc(-c2cc(N3C[C@H](c4cc(F)c(F)cc4F)[C@@H](N)C3)ncn2)cn1 | – | half-life [3]: 2.8 h; fraction unbound [4]: 0.17; IC50 [5]: > 30 µM; bioavailability [6]: 57%; half-life [7]: 3.3 h; half-life [8]: 5.1 h; clearance [9]: 4.4 mL/min/kg; Vd [10]: 0.67 L/kg; clearance [11]: 4.8 mL/min/kg; Vd [12]: 1.9 L/kg; IC50 [1]: 19 µM
6 | CN(C)c1ccc([C@@H]2CN(c3nc4c(cc3F)c(=O)c(C(=O)O)cn4C3CC3)C[C@@H]2N)cc1 (relative stereo) | > 3 | –
7 | CC(=O)c1ccc(N2C[C@H](c3ccccc3)[C@@H](N)C2)nc1 | > 3 | –
8 | N[C@H]1CN(c2nc3c(cc2F)c(=O)c(C(=O)O)cn3C2CC2)C[C@H]1c1ccc(O)cc1 (relative stereo) | > 3 | –
9 | N[C@H]1CN(c2cc(-c3ccccc3Cl)ncn2)C[C@@H]1c1ccccc1 | > 3 | –
10 | N[C@H]1CN(c2cc(-c3ccccc3)ncn2)C[C@@H]1c1cc(F)c(F)cc1F | – | IC50 [1]: 18 µM
11 | CC(C)c1ccc([C@@H]2CN(c3nc4c(cc3F)c(=O)c(C(=O)O)cn4C3CC3)C[C@@H]2N)cc1 (relative stereo) | > 3 | –
12 | N[C@H]1CN(c2cc(Cl)nc(-c3ccccc3)n2)C[C@@H]1c1ccccc1 | > 3 | –

Continued, in another order:

Row | IC50 [2] [µM] | Structure (SMILES) | also measured
13 | > 3 | N[C@H]1CN(c2cnc3ccccc3n2)C[C@@H]1c1ccccc1 | –
14 | > 3 | N[C@H]1CN(c2cc(-c3ccc(Cl)cc3)ncn2)C[C@@H]1c1ccccc1 | –
15 | > 3 | N[C@H]1CN(c2cc(-c3ccc(O)cc3)ncn2)C[C@@H]1c1ccccc1 | –
16 | > 3 | N#Cc1cccnc1N1C[C@H](c2ccccc2)[C@@H](N)C1 | –
17 | > 3 | Nc1ccc([C@@H]2CN(c3nc4c(cc3F)c(=O)c(C(=O)O)cn4C3CC3)C[C@@H]2N)cc1 (relative stereo) | –
18 | > 3 | Cn1cnc2c(N3C[C@H](c4ccccc4)[C@@H](N)C3)ncnc21 | –
